Laboratory results as given in US8546579B2, “Bicycloheteroaryl compounds as P2X7 modulators and uses thereof” (Evotec (US) Inc., priority 2006, dated 2013).

What follows are molecules tested against T1, P2X7 receptor (Homo sapiens, UniProt Q99572) (assay: IL-1β release assay in differentiated THP-1 cells stimulated with BzATP (Example 9)). Details: 0.1 μM compound; differentiated THP-1 cells, BzATP 250 uM; symbols * to ****; read-out: IL-1β % Inhib. (asterisk symbols: at 0.1 μM).
T1 construct: host or cells: THP-1 cells differentiated with LPS and IFN-γ
T1 sequence (Q99572 1-595): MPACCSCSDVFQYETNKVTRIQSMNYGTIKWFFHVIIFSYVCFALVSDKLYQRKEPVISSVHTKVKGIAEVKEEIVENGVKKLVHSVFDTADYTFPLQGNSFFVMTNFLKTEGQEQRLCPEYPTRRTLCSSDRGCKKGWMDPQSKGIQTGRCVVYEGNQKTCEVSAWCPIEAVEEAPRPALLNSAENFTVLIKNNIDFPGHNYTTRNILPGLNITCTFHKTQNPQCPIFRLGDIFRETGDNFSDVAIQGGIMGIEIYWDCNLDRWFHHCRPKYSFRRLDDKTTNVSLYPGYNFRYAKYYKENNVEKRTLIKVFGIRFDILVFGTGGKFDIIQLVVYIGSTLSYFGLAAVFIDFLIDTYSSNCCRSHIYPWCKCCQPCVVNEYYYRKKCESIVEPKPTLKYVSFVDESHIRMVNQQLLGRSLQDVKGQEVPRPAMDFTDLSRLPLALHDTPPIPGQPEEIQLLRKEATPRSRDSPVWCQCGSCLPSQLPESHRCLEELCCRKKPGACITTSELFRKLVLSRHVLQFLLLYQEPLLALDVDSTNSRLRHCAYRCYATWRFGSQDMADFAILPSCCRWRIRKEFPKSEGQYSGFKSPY
Format: cell-based
Summary of the method: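 THP-1 cells differentiated 16 h with LPS and IFN-γ (100 ng/mL each), re-primed 2 h with LPS, then compound-pretreated 30 min before 250 uM BzATP for 45 min. Supernatant IL-1β quantified by ELISA; background-adjusted percent inhibition fitted to four-parameter logistic for IC50.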

| inhibition at 0.1 µM [%] | Structure (SMILES) |
| --- | --- |
| 0 to 25 | COc1cc(OC)cc(C(=O)Nc2cccc3c(=O)n(C)ccc23)c1 [Compound 1290] |
| 0 to 25 | COCCn1ccc2c(NC(=O)Cc3cc(OC)ccc3OC)cccc2c1=O [Compound 1313] |
| 51 to 75 | COc1cc(OC)cc(C(=O)Nc2cccc3c(=O)n(Cc4cccnc4)ccc23)c1 [Compound 1346] |
| 26 to 50 | CC(C(=O)Nc1cccc2c(=O)n(Cc3cccnc3)ccc12)c1ccccc1 (stereo not shown) [Compound 1347] |
| 0 to 25 | COc1ccccc1CCC(=O)Nc1cccc2c(=O)n(Cc3cccnc3)ccc12 [Compound 1348] |
| 0 to 25 | COc1ccc(CCC(=O)Nc2cccc3c(=O)n(Cc4cccnc4)ccc23)cc1 [Compound 1349] |
| 0 to 25 | O=C(Cc1cccc2ccccc12)Nc1cccc2c(=O)n(Cc3cccnc3)ccc12 [Compound 1350] |

Same assay, conditions: 0.3 μM compound; differentiated THP-1 cells, BzATP 250 uM; symbols + to ++++; read-out: IL-1β % Inhib. @ 0.3 μM

| Structure (SMILES) | inhibition at 0.3 µM [%] |
| --- | --- |
| Cc1cc(C(=O)Nc2cccc3c(=O)n(CC(C)(C)C)ccc23)ccc1F [Compound 1279] | 0 to 25 |
| CCOc1ccccc1CC(=O)Nc1cccc2c(=O)n(CC(C)(C)C)ccc12 [Compound 1280] | 0 to 25 |
| COc1ccc(CC(=O)Nc2cccc3c(=O)n(CC(C)(C)C)ccc23)cc1C [Compound 1281] | 26 to 50 |
| Cc1ccc(Cl)c(C(=O)Nc2cccc3c(=O)n(CC(C)(C)C)ccc23)c1 [Compound 1282] | 0 to 25 |
| Cc1ccc(Cl)cc1C(=O)Nc1cccc2c(=O)n(CC(C)(C)C)ccc12 [Compound 1283] | 26 to 50 |
| Cc1cccc(CCC(=O)Nc2cccc3c(=O)n(CC(C)(C)C)ccc23)c1 [Compound 1284] | 0 to 25 |
| Cc1ccc(CCC(=O)Nc2cccc3c(=O)n(CC(C)(C)C)ccc23)c(C)c1 [Compound 1286] | 0 to 25 |
| CC(C)(C)Cn1ccc2c(NC(=O)CCc3cccc(Cl)c3)cccc2c1=O [Compound 1287] | 0 to 25 |
| CC(C)Cc1ccc(C(=O)Nc2cccc3c(=O)n(CC(C)(C)C)ccc23)cc1 [Compound 1288] | 0 to 25 |
| Cc1cccc(C(=O)Nc2cccc3c(=O)n(C)ccc23)c1C [Compound 1289] | 0 to 25 |
| CCOc1ccc(C(=O)Nc2cccc3c(=O)n(C)ccc23)cc1 [Compound 1291] | 0 to 25 |
| CC(C(=O)Nc1cccc2c(=O)n(C)ccc12)c1ccccc1 (stereo not shown) [Compound 1292] | 0 to 25 |
| Cn1ccc2c(NC(=O)Cc3ccccc3F)cccc2c1=O [Compound 1294] | 0 to 25 |
| Cc1ccccc1CC(=O)Nc1cccc2c(=O)n(C)ccc12 [Compound 1296] | 0 to 25 |
| Cc1cccc(CC(=O)Nc2cccc3c(=O)n(C)ccc23)c1 [Compound 1298] | 0 to 25 |
| Cn1ccc2c(NC(=O)c3cc4ccccc4o3)cccc2c1=O [Compound 1300] | 0 to 25 |
| Cn1ccc2c(NC(=O)Cc3ccc4c(c3)OCO4)cccc2c1=O [Compound 1301] | 0 to 25 |
| Cn1ccc2c(NC(=O)c3cccc4c3OCCO4)cccc2c1=O [Compound 1304] | 0 to 25 |
| Cn1ccc2c(NC(=O)c3ccc4c(c3)OCCCO4)cccc2c1=O [Compound 1305] | 0 to 25 |
| CCOc1ccccc1CC(=O)Nc1cccc2c(=O)n(C)ccc12 [Compound 1307] | 0 to 25 |
| Cn1ccc2c(NC(=O)c3cc4cc(Cl)ccc4o3)cccc2c1=O [Compound 1308] | 0 to 25 |
| Cn1ccc2c(NC(=O)CCc3cccc(Cl)c3)cccc2c1=O [Compound 1309] | ≥ 76 |
| O=C(Nc1cccc2c(=O)n(Cc3cccnc3)ccc12)c1ccccc1Cl [Compound 1344] | 26 to 50 |
| Cc1cccc(C(=O)Nc2cccc3c(=O)n(Cc4cccnc4)ccc23)c1C [Compound 1345] | 0 to 25 |
| COc1ccccc1CC(=O)Nc1cccc2c(=O)n(Cc3cccnc3)ccc12 [Compound 1351] | 0 to 25 |
| COc1ccc(OC)c(CC(=O)Nc2cccc3c(=O)n(Cc4cccnc4)ccc23)c1 [Compound 1352] | 0 to 25 |

Continued, values first:

| inhibition at 0.3 µM [%] | Structure (SMILES) |
| --- | --- |
| 0 to 25 | COc1ccc(CCC(=O)Nc2cccc3c(=O)n(C)ccc23)cc1 [Compound 1293] |
| 0 to 25 | COc1ccccc1CC(=O)Nc1cccc2c(=O)n(C)ccc12 [Compound 1295] |
| 26 to 50 | COc1cccc(CC(=O)Nc2cccc3c(=O)n(C)ccc23)c1 [Compound 1297] |
| 0 to 25 | COc1ccc(CC(=O)Nc2cccc3c(=O)n(C)ccc23)cc1 [Compound 1299] |
| 0 to 25 | Cn1ccc2c(NC(=O)CC3CC4CC[C@H]3C4)cccc2c1=O (stereo partly shown) [Compound 1302] |
| 0 to 25 | Cn1ccc2c(NC(=O)[C@@]34C[C@@H]5C[C@@H](C[C@@H]3C5)C4)cccc2c1=O [Compound 1303] |
| 0 to 25 | Cn1ccc2c(NC(=O)C3C[C@@H]4CC[C@H]3C4)cccc2c1=O (stereo partly shown) [Compound 1306] |
| 0 to 25 | COCCn1ccc2c(NC(=O)c3ccccc3C)cccc2c1=O [Compound 1310] |
| 0 to 25 | COCCn1ccc2c(NC(=O)CCc3ccc(OC)cc3)cccc2c1=O [Compound 1311] |
| 0 to 25 | COCCn1ccc2c(NC(=O)c3cccc4ccccc34)cccc2c1=O [Compound 1312] |
| 0 to 25 | COCCn1ccc2c(NC(=O)Cc3ccc(OC)c(OC)c3)cccc2c1=O [Compound 1314] |
| 0 to 25 | COCCn1ccc2c(NC(=O)Cc3cccc(C)c3)cccc2c1=O [Compound 1315] |
| 0 to 25 | COCCn1ccc2c(NC(=O)Cc3ccc(OC)cc3)cccc2c1=O [Compound 1316] |
| 0 to 25 | CCOc1ccc(CC(=O)Nc2cccc3c(=O)n(CCOC)ccc23)cc1 [Compound 1317] |
| 0 to 25 | COCCn1ccc2c(NC(=O)Cc3ccc(C)cc3)cccc2c1=O [Compound 1318] |
| 0 to 25 | COCCn1ccc2c(NC(=O)CCCc3ccccc3)cccc2c1=O [Compound 1319] |
| 0 to 25 | COCCn1ccc2c(NC(=O)c3cc4ccccc4o3)cccc2c1=O [Compound 1320] |
| 0 to 25 | COCCn1ccc2c(NC(=O)Cc3ccc4c(c3)OCO4)cccc2c1=O [Compound 1321] |
| 0 to 25 | COCCn1ccc2c(NC(=O)Cc3cc(OC)cc(OC)c3)cccc2c1=O [Compound 1322] |
| 0 to 25 | COCCn1ccc2c(NC(=O)c3cc(C)c(OC)c(C)c3)cccc2c1=O [Compound 1323] |

| inhibition at 0.3 µM [%] | Structure (SMILES) |
| --- | --- |
| 26 to 50 | COCCn1ccc2c(NC(=O)c3ccc(C)c(Cl)c3)cccc2c1=O [Compound 1324] |
| 26 to 50 | COCCn1ccc2c(NC(=O)c3ccc(Cl)cc3C)cccc2c1=O [Compound 1325] |
| ≥ 76 | COCCn1ccc2c(NC(=O)CC3CC4CC[C@H]3C4)cccc2c1=O (stereo partly shown) [Compound 1326] |
| 0 to 25 | COCCn1ccc2c(NC(=O)[C@@]34C[C@@H]5C[C@@H](C[C@@H]3C5)C4)cccc2c1=O [Compound 1327] |
| 0 to 25 | COCCn1ccc2c(NC(=O)c3ccc4c(c3)OCCCO4)cccc2c1=O [Compound 1328] |
| 0 to 25 | COCCn1ccc2c(NC(=O)Cc3csc4ccccc34)cccc2c1=O [Compound 1329] |
| 0 to 25 | COCCn1ccc2c(NC(=O)c3cccc(Cl)c3C)cccc2c1=O [Compound 1330] |
| 0 to 25 | COCCn1ccc2c(NC(=O)Cc3cc(C)cc(C)c3)cccc2c1=O [Compound 1331] |
| 0 to 25 | COCCn1ccc2c(NC(=O)[C@H]3C[C@@H]4CC[C@H]3C4)cccc2c1=O [Compound 1332] |
| 0 to 25 | COCCn1ccc2c(NC(=O)Cc3ccc(OC)cc3OC)cccc2c1=O [Compound 1333] |
| 0 to 25 | COCCn1ccc2c(NC(=O)c3ccc(F)c(C)c3)cccc2c1=O [Compound 1334] |
| 0 to 25 | COCCn1ccc2c(NC(=O)CCc3ccc(Cl)cc3)cccc2c1=O [Compound 1335] |
| 0 to 25 | CCOc1ccccc1CC(=O)Nc1cccc2c(=O)n(CCOC)ccc12 [Compound 1336] |
| 0 to 25 | COCCn1ccc2c(NC(=O)Cc3ccc(OC)c(C)c3)cccc2c1=O [Compound 1337] |
| 0 to 25 | COCCn1ccc2c(NC(=O)CCc3cccc(C)c3)cccc2c1=O [Compound 1338] |
| 0 to 25 | COCCn1ccc2c(NC(=O)c3cccc(C)c3Cl)cccc2c1=O [Compound 1339] |
| 0 to 25 | COCCn1ccc2c(NC(=O)c3ccc(OC)c(C)c3)cccc2c1=O [Compound 1340] |
| 0 to 25 | COCCn1ccc2c(NC(=O)CCc3ccc(C)cc3C)cccc2c1=O [Compound 1341] |
| 0 to 25 | COCCn1ccc2c(NC(=O)CCc3cccc(Cl)c3)cccc2c1=O [Compound 1342] |
| 0 to 25 | COCCn1ccc2c(NC(=O)c3ccc(CC(C)C)cc3)cccc2c1=O [Compound 1343] |
